The text below walks through data of patent publication US10358435B2, “Triazolyl pyrimidinone compounds as PDE2 inhibitors” (Merck Sharp & Dohme Corp., priority 2015, dated 2019).

Structures are written as SMILES.

This assay concerns the target human PDE2A1 (Homo sapiens (Human), UniProt O00408). Put plainly: IMAP fluorescence polarization assay, human PDE2A1 (PDE selectivity panel). It counts as biochemical. The note with it: for Ki: FAM cAMP 50 nM with 1000 nM cGMP. Here is the method:
The activity of the compounds in accordance with the present invention as PDE2 inhibitors may be readily determined using a fluorescence polarization (FP) methodology (Huang, W., et al., J. Biomol Screen, 2002, 7: 215).
Dose-inhibition profiles for each compound were characterized by fitting the mP data to a four-parameter equation given below.
Selectivity for PDE2, as compared to other PDE families, was assessed using the IMAP® technology. Human PDE10A2 enzyme was prepared from cytosolic fractions of transiently transfected HEK cells. All other PDE's were GST Tag human enzyme expressed in insect cells and were obtained from BPS Bioscience (San Diego, Calif.): PDE1A (Cat#60010), human PDE2A1 (Cat#60020), PDE3A (Cat#60030), PDE4A1A (Cat#60040), PDE5A1 (Cat#60050), PDE6C (Cat#60060), PDE7A (Cat#60070), PDE8A1 (Cat#60080), PDE9A2 (Cat#60090), PDE11A4 (Cat#60110).
Assays for PDE 1 through 11 were performed in parallel at room temperature in 384-well microtiter plates with an incubation volume of 20.2 μL. Solutions of test compounds were prepared in DMSO and serially diluted with DMSO to yield 30 μL of each of ten solutions differing by 3-fold in concentration, at 32 serial dilutions per plate. […] A Labcyte POD 810 (Labcyte, Sunnyvale, Calif.) was used to dispense 200 nL from each well of the titration plate to make eleven copies of the assay plate for each titration, one copy for each PDE enzyme. A solution of each enzyme (dilution from aliquots, sufficient to produce 20% substrate conversion) and a separate solution of FAM-labeled cAMP or FAM-labeled cGMP from Molecular Devices (Sunnyvale, Calif., product # R7506 or cGMP#R7508), at a final concentration of 50 nM were made in the assay buffer (10 mM Tris HCl, pH 7.2, 10 mM MgCl2, 0.05% NaN3 0.01% Tween-20, and 1 mM DTT). Note that the substrate for PDE2 is 50 nM FAM cAMP containing 1000 nM of cGMP. The enzyme and the substrate were then added to the assay plates in two consecutive additions of 10 μL and then shaken to mix. The reaction was allowed to proceed at room temperature for 60 minutes. A binding solution was then made from the kit components, comprised of 80% Solution A, 20% Solution B and binding reagent at a volume of 1/600 the total binding solution. The enzymatic reaction was stopped by addition of 60 μL of the binding solution to each well of the assay plate. The plates were sealed and shaken for 10 seconds. The plates were incubated at room temperature for one hour, then the parallel and perpendicular fluorescence was measured using a Tecan Genios Pro plate reader (Tecan, Switzerland). The apparent inhibition constants for the compounds against all 11 PDE's was determined from the parallel and perpendicular fluorescent readings as described for PDE10 FP assay using the following apparent KM values for each enzyme and substrate combination: PDE1A (FAM cGMP) 70 nM, human PDE2A1 (FAM cAMP) 10,000 nM, PDE3A (FAM cAMP) 50 nM, PDE4A1A (FAM cAMP) 1500 nM, PDE5A1 (FAM cGMP) 400 nM, PDE6C (FAM cGMP) 700 nM, PDE7A (FAM cAMP) 150 nM, PDE8A1 (FAM cAMP) 50 nM, PDE9A2 (FAM cGMP) 60 nM, PDE10A2 (FAM cAMP) 150 nM, PDE11A4 (FAM cAMP) 1000 nM. The intrinsic PDE2 inhibitory activity of a compound which may be used in accordance with the present invention may be determined by these assays.
A general note: Fluorescence polarisation rises when a labelled molecule tumbles more slowly, as on binding a larger partner.

Chain of human PDE2A1 (O00408 other isoform, or with tags, fused parts or gaps): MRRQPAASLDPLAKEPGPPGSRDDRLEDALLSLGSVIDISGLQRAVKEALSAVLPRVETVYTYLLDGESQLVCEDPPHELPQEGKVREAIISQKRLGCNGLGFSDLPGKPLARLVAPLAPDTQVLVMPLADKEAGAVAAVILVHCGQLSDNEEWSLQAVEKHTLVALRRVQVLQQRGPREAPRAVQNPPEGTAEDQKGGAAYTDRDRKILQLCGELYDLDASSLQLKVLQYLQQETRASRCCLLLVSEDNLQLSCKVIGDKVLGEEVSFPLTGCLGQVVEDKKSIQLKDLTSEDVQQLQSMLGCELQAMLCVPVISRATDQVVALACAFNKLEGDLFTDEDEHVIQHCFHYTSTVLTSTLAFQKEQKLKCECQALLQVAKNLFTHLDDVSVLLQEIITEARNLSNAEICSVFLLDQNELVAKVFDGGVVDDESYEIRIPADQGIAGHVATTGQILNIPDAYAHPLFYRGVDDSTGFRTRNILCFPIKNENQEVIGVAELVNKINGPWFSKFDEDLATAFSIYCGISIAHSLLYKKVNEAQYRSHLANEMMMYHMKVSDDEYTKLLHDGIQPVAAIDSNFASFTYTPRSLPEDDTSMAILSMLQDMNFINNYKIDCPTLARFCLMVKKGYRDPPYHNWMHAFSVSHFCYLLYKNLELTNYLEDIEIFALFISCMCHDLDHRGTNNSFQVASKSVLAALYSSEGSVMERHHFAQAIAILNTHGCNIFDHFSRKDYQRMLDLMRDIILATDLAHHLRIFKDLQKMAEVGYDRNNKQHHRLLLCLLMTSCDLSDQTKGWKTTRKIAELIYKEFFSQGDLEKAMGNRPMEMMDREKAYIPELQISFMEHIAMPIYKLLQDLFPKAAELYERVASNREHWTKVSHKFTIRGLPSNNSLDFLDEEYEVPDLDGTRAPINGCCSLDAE

In general, Ki refers to a dissociation constant, usually derived from enzyme kinetics or from competition with a known ligand. Take `Cc1nc(-c2cn(C(C)c3ccc(C4CC4)cc3Cl)nn2)cc(=O)[nH]1` (single isomer, unassigned) [Example 25, (R)- or (S)-6-(1-(1-(2-chloro-4-cyclopropylphenyl)ethyl)-1H-1,2,3-triazol-4-yl)-2-methylpyrimidin-4(3H)-one]: the Ki was 58.4 nM.

As to `Cc1nc(-c2nnc3n2CCCC3(C)c2ccc(C(F)(F)F)cc2)cc(=O)[nH]1` (single isomer, unassigned) [Example 72, (S)- or (R)-2-methyl-6-(8-methyl-8-(4-(trifluoromethyl)phenyl)-5,6,7,8-tetrahydro-[1,2,4]triazolo[4,3-a]pyridin-3-yl)pyrimidin-4(3H)-one], the Ki is 864 nM.

`Cc1nc(-c2nnn3c2CCCCC3(C)c2ccc(C(F)(F)F)cc2F)cc(=O)[nH]1` (single isomer, unassigned) [Example 94, (S)- or (R)-6-(8-(2-Fluoro-4-(triflouromethyl)phenyl)-8-methyl-5,6,7,8-tetrahydro-4H-[1,2,3]triazolo[1,5-a]azepin-3-yl)-2-methylpyrimidin-4(3H)-one]: the inhibition constant (Ki) amounted to 56.3 nM.

As a reminder, the inhibition is the drop in the measured response relative to a control, in per cent. On to `Cc1nc(-c2nnc(C(C)c3ccc(C(F)(F)F)cc3F)n2C)cc(=O)[nH]1` (single isomer, unassigned) [Example 63, (R)- or (S)-6-(5-(1-(2-fluoro-4-(trifluoromethyl)-phenyl)ethyl)-4-methyl-4H-1,2,4-triazol-3-yl)-2-methylpyrimidin-4(3H)-one], for which the inhibition at 3 µM amounted to 16%.

As to `Cc1nc(-c2nnn3c2COCC3c2ccc(C(F)(F)F)cc2)cc(=O)[nH]1` (stereo not shown) [Example 53, 2-methyl-6-(7-(4-(trifluoromethyl)phenyl)-6,7-dihydro-4H-[1,2,3]triazolo[5,1-c][1,4]oxazin-3-yl)pyrimidin-4(3H)-one], the Ki was 73.2 nM.

Take `Cc1nc(-c2nnc(C(C)c3ccc(C(F)(F)F)cc3Cl)n2C)cc(=O)[nH]1` (single isomer, unassigned) [Example 68, (S)- or (R)-6-(5-(1-(2-chloro-4-(trifluoromethyl)-phenyl)ethyl)-4-methyl-4H-1,2,4-triazol-3-yl)-2-methylpyrimidin-4(3H)-one]: the Ki worked out at 7.7 nM.

Regarding `Cc1nc(-n2ncc([C@H](C)c3ccc(C(F)(F)F)cc3Cl)n2)cc(=O)[nH]1` (single isomer, unassigned) [Example 82], the inhibition constant (Ki) was 221 nM.

On to `Cc1nc(-n2cnc([C@H](C)c3ccc(C(F)(F)F)cc3F)n2)cc(=O)[nH]1` (single isomer, unassigned) [Example 84], for which the inhibition constant (Ki) was found to be 224 nM.

Take `Cc1nc(-c2nnn3c2CCCCC3c2ccc(C(F)(F)F)cc2)cc(=O)[nH]1` (single isomer, unassigned) [Example 52, (S)- or (R)-2-methyl-6-(8-(4-(trifluoromethyl)phenyl)-5,6,7,8-tetrahydro-4H-[1,2,3]triazolo[1,5-a]azepin-3-yl)pyrimidin-4(3H)-one]: the Ki was 139 nM.

`Cc1nc(-c2nnc3n2CCC[C@]3(C)c2ccc(C(F)(F)F)cc2F)cc(=O)[nH]1` (single isomer, unassigned) [Example 80]: the Ki is 2060 nM.

`Cc1nc(-c2cnn(C(C)c3ccc(C(F)(F)F)cc3F)n2)cc(=O)[nH]1` (single isomer, unassigned) [Example 3, (R)- or (S)-6-(2-(1-(2-fluoro-4-(trifluoromethyl)phenyl)ethyl)-2H-1,2,3-triazol-4-yl)-2-metylpyrimidin-4(3H)-one]: the Ki turned out to be 112 nM.

As to `Cc1nc(-c2nnn3c2CCCC3c2ccc(C(F)(F)F)cc2F)cc(=O)[nH]1` (single isomer, unassigned) [Example 50, (S)- or (R)-6-(7-(2-fluoro-4-(trifluoromethyl)phenyl)-4,5,6,7-tetrahydro-[1,2,3]triazolo[1,5-a]pyridin-3-yl)-2-methylpyrimidin-4(3H)-one], the inhibitory constant (Ki) is 20.7 nM.

`Cc1nc(-c2nnc(C(C)c3ccc(C(F)(F)F)cc3Cl)[nH]2)cc(=O)[nH]1` (single isomer, unassigned) [Example 65, (R)- or (S)-6-(5-(1-(2-chloro-4-(trifluoromethyl)-phenyl)ethyl)-4H-1,2,4-triazol-3-yl)-2-methylpyrimidin-4(3H)-one]: the Ki came to 15.9 nM.

In the case of `CCc1ccc(C(C)n2ncc(-c3cc(=O)[nH]c(C)n3)n2)c(Cl)c1` (single isomer, unassigned) [Example 7, (R)- or (S)-6-(2-(1-(2-chloro-4-ethylphenyl)ethyl)-2H-1,2,3-triazol-4-yl)-2-methylpyrimidin-4(3H)-one], the inhibitory constant (Ki) came to 60.9 nM.

Take `Cc1nc(-c2nnn3c2CCC[C@@]3(C)c2ccc(C(F)(F)F)cc2)cc(=O)[nH]1` (single isomer, unassigned) [Example 55]: the Ki was 232 nM.

As to `Cc1nc(-c2cn(C(c3ccc(C(F)(F)F)cc3F)C(C)C)nn2)cc(=O)[nH]1` (single isomer, unassigned) [Example 40, (S)- or (R)-6-(1-(1-(2-fluoro-4-(trifluoromethyl)phenyl)-2-methylpropyl)-1H-1,2,3-triazol-4-yl)-2-methylpyrimidin-4(3H)-one], the inhibitory constant (Ki) was 22.6 nM.

As to `COc1cccc(Cc2nc(-c3nnn4c3CCCC4(C)c3ccc(C(F)(F)F)cc3F)cc(=O)[nH]2)c1` (single isomer, unassigned) [Example 92], the Ki worked out at 728 nM.

`Cc1nc(-c2cnn([C@H](C)c3ccc(C(F)(F)F)cc3Cl)n2)cc(=O)[nH]1` (single isomer, unassigned) [Example 2]: the Ki was about 1300 nM.

As to `CCCCc1c(-c2cc(=O)[nH]c(C)n2)nnn1C(C)c1ccc(C(F)(F)F)cc1Cl` (single isomer, unassigned) [Example 45, (R)- or (S)-6-(5-butyl-1-(1-(2-chloro-4-(trifluoromethyl)phenyl)ethyl)-1H-1,2,3-triazol-4-yl)-2-methylpyrimidin-4(3H)-one], the Ki was determined as 9.2 nM.

As to `Cc1nc(-n2cc([C@H](C)c3ccc(C(F)(F)F)cc3Cl)nn2)cc(=O)[nH]1` (single isomer, unassigned) [Example 75], the Ki was determined as 8.9 nM.

For the compound `CCc1ccc([C@]2(C)CCCc3c(-c4cc(=O)[nH]c(C)n4)nnn32)c(F)c1` (single isomer, unassigned) [Example 95], the inhibitory constant (Ki) was found to be 1.8 nM.

In the case of `CCc1ccc(C(C)n2cc(-c3cc(=O)[nH]c(C)n3)nn2)c(Cl)c1` (single isomer, unassigned) [Example 20, (S)- or (R)-6-(1-(1-(2-chloro-4-ethylphenyl)ethyl)-1H-1,2,3-triazol-4-yl)-2-methylpyrimidin-4(3H)-one], the inhibitory constant (Ki) stood at 46.7 nM.

Take `Cc1nc(-n2cc([C@H](C)c3ccc(C(F)(F)F)cc3Cl)nn2)cc(=O)[nH]1` (single isomer, unassigned) [Example 74]: the Ki came to 0.42 nM.

As for `Cc1nc(-c2nnc(C(C)c3ccc(C(F)(F)F)cc3F)n2C)cc(=O)[nH]1` (single isomer, unassigned) [Example 64, (S)- or (R)-6-(5-(1-(2-fluoro-4-(trifluoromethyl)-phenyl)ethyl)-4-methyl-4H-1,2,4-triazol-3-yl)-2-methylpyrimidin-4(3H)-one], the inhibition constant Ki is 23.3 nM.

Regarding `Cc1nc(-c2cn(C(C)c3ccc(C(F)(F)F)c(F)c3F)nn2)cc(=O)[nH]1` (single isomer, unassigned) [Example 22, (S)- or (R)-6-(1-(1-(2,3-difluoro-4-(trifluoromethyl)phenyl)ethyl)-1H-1,2,3-triazol-4-yl)-2-methylpyrimidin-4(3H)-one], the inhibitory constant (Ki) is 17.7 nM.
